# Experiments:
# [1] = test system: HEK-TOP cell lines; assay: Cell Titer Glo cytotoxicity profile (CTG); conditions: concentration range as worded in the sentence
# Protocol: Activity of compounds was tested against HEK-TOP cells vs. HEK FOP cells for inhibition of luciferase activity. The cytotoxicity profiles of the compounds were also tested using Cell Titer Glo assay (Promega) on HEK-TOP cell lines.
# [2] = test system: Wnt-signaling reporter activity (TCF/Lef:H2B-GFP); assay: TCF/Lef:H2B-GFP reporter mice; format: in vivo, mouse; conditions: low-dose DXR (legend: [Low]nanoDXR, 3 hours post-injection)
# Source text: Percent of TCF/Lef:H2B-GFP^+ cells for each population are indicated.
# [3] = test system: patient BM with or without chemoresistant pS^552-β-cat^+ LSCs; assay: 2° PDX recipients treated with low-dose DXR ([Low]nanoDXR); format: in vivo, human
# Protocol: FIG. 12F is the Kaplan-Meier survival curve for 2° PDX recipients treated with vehicle or [Low]nanoDXR. Bone marrow was harvested from 1° recipients of diagnostic BM, transplanted into a larger set of 2° PDX recipients and treated with [Low] NanoDXR starting at day 14 post-transplant and continuing for up to 10 weeks.
# FIG. 12G is the Kaplan-Meier survival curve for 2° PDX recipients treated with vehicle or [Low]nanoDXR. Bone marrow was harvested from 1° recipients of post-chemotherapy BM, transplanted into a larger set of 2° PDX recipients and treated with [Low] NanoDXR starting at day 14 post-transplant and continuing for up to 10 weeks.
# Human CD45^+ and human LSC engraftment was determined after succumbing to leukemia or at experimental endpoint. Graphs indicate frequency (%)+Std. Dev.
# FIG. 12L is the Kaplan-Meier survival curve for 2° PDX recipients treated with vehicle or [Low]nanoDXR. Bone marrow was harvested from 1° recipients of diagnostic BM (FIG. 12D), transplanted into a larger set of 2° PDX recipients and treated with [Low] NanoDXR starting at day 14 post-transplant and continuing for up to 10 weeks.
# FIG. 12M is the Kaplan-Meier survival curve for 2° PDX recipients treated with vehicle or [Low]nanoDXR. Bone marrow was harvested from 1° recipients of diagnostic BM (FIG. 12E), transplanted into a larger set of 2° PDX recipients and treated with [Low] NanoDXR starting at day 14 post-transplant and continuing for up to 10 weeks.
# Human CD45^+ and human LSC engraftment was determined after succumbing to leukemia or at experimental endpoint. Graphs indicate frequency (%)+Std. Dev. (N.S.=not significant).
# All patient samples were obtained under research ethics board approval with informed consent. Pediatric patient BM was transplanted into NSG mice. When 1° transplant mice succumbed to leukemia, bone marrow was harvested, frozen for later use, and transplanted into a larger set of 2° NSG recipients. […] Health was monitored independently by technicians blinded to any hypothetical outcome. […]
# [4] = test system: immune checkpoint (IC) and Wnt target gene loci; assay: ATAC-seq chromatin accessibility in LSCs and blast cells; format: in vivo, mouse; conditions: [Low]DXR
# Source text: Inhibitory IC gene loci are highlighted (blue dots).
# Cells were sorted from BM pooled from 20 leukemia mice treated with [Low]DXR and 8 leukemia mice treated with vehicle control at 15-30 k/replicate.
# FIG. 4M is metagene analysis of LSCs showing chromatin accessibility near the transcriptional start site (TSS) in immune-checkpoint gene loci (listed) compared with all loci showing significant changes. Gene synonyms are listed here in parentheses Hvem (Tnfrsf14), Gal-9 (Lgals9), Ox401 (Tnfsf4), Tnfsf7 (Cd70), B7-H2 (Icosl), B7-H3 (Cd276), B7-H4 (Vtcn1), Pd1 (Pdcd1), Tnfrsf7 (Cd27), Tim3 (Havcr2), Ox40 (Tnfrsf4).
# Cells were sorted from BM pooled from 20 leukemia mice treated with [Low]DXR and 8 leukemia mice treated with vehicle control. Experiment was repeated 1 time with similar results.
# ATAC-seq was performed in LSCs and blast cells following the protocol described in Buenrostro et al., ATAC-seq: A Method for Assaying Chromatin Accessibility Genome-Wide. Curr Protoc Mol Biol. 2015 Jan. 5,109:21.29.1-9, the entirety of which is incorporated herein by reference. Cells were sorted from BM pooled from 20 leukemia mice treated with [Low]DXR and 8 leukemia mice treated with vehicle control at 15-30 k/replicate.
# Collected cells were subject to transposition reaction and purification. In brief, 30,000 FACS-sorted blast cells were washed using 50 μl cold 1×PBS and centrifuged at 500 g for 5 min in a pre-chilled (4° C.) fixed-angle centrifuge. Cells were lysed using cold lysis buffer (10 mM Tris-HCl, pH 7.4, 10 mM NaCl, 3 mM MgCl2 and 0.1% IGEPAL CA-630). Following the lysis, the pellet was resuspended in the transposase reaction mix. The transposition reaction mix contains 25 μl TD (2× reaction buffer), 2.5 μl TDE1 (Nextera Tn5 Transposase) and 22.5 μl Nuclease Free H2O. Resuspended nuclei in the transposition reaction mix. Incubated the transposition reaction at 37° C. for 30 min. Immediately following transposition, purification was performed by using a Qiagen MinElute PCR Purification Kit. Eluted transposed DNA in 10 μl Elution Buffer (10 mM Tris buffer, pH 8). Transposed DNA fragments were amplified by PCR. The PCR mixture contains 10 μl transposed DNA, 10 μl Nuclease Free H2O, 2.5 μl 25 μM Custom Nextera PCR Primer 1, 2.5 μl 25 μM Custom Nextera PCR Primer 2 (Contains Barcode) and 25 μl NEBNext High-Fidelity 2×PCR Master Mix. The thermal cycle is as follows: 1 cycle of 72° C. for 5 min, 98° C. for 30 sec, 5 cycles of 98° C. for 10 sec, 63° C. for 30 sec, 72° C. for 1 min. To reduce GC and size bias in PCR, the appropriate number of PCR cycles is determined using qPCR. To run a qPCR side reaction, combine the following in qPCR compatible consumables: 5 μl of previously PCR amplified DNA, 4.41 μl Nuclease Free H2O, 0.25 μl 25 μM Customized Nextera PCR Primer 1, 0.25 μl 25 μM Customized Nextera PCR Primer 2, 0.09 μl 100×SYBR Green I, 5 μl NEBNext High-Fidelity 2×PCR Master Mix. Using a qPCR instrument, cycle as follows: 1 cycle of 98° C. for 30 sec, 20 cycles of 98° C. for 10 sec, 63° C. for 30 sec, 72° C. for 1 min. To calculate the additional number of cycles needed, plot linear Rn versus cycle and determine the cycle number that corresponds to […] fluorescent intensity. Run the remaining 45 μl PCR reaction to the cycle number determined by qPCR. Cycle as follows: 1 cycle of 98° C. for 30 sec, N cycles (determined using qPCR) of 98° C. for 10 sec, 63° C. for 30 sec, 72° C. for 1 min.
# [5] = Pt samples containing chemoresistant pS552-β-cat+ LSCs
smiles,measurement,setting,value
"COc1cccc2c1C(=O)c1c(O)c3c(c(O)c1C2=O)C[C@@](O)(C(=O)CO)C[C@@H]3O[C@H]1C[C@H](N)[C@H](O)[C@H](C)O1 [DXR, doxorubicin]",toxicity (CTG),[1],increased toxicity
same,Wnt-signaling reporter activity,[2],significantly inhibits
same,leukemia engraftment and LSC frequency compared to vehicle control,[3]; [5],reduced leukemia engraftment and LSC frequency
same,survival compared to vehicle control,[3]; [5],significantly improved survival
same,"survival, leukemia engraftment or LSC frequency",[3]; Pt samples lacking chemoresistant pS552-β-cat+ LSCs,no significant difference
same,IC loci with increased accessibility,[4]; LSCs,3 loci
same,IC loci with reduced accessibility,[4]; LSCs,13 loci
same,IC loci with increased accessibility,[4]; blast cells,10
same,IC loci with reduced accessibility,[4]; blast cells,4
same,accessibility in the promoter regions of Wnt target genes in LSCs,[4]; not in blast cells,reduced
